Drawing on ChEMBL document CHEMBL5634145, “Discovery of novel amidobenzimidazole derivatives as orally available small molecule modulators of stimulator of interferon genes for cancer immunotherapy” (Eur J Med Chem, 2023), this text covers viability and EC50 for 30 compounds.

Data set [1] can be described thus: Cytotoxicity against human THP1-Dual KO-STING cells assessed as cell viability incubated for 24 hrs by CellTiter 96 aqueous one solution assay relative to control. In kind it is toxicity, cell-based. Also noted: concentration or dose not given beside the values. The conditions noted are these: read-out: Activity.
The nature of data set [2]: Cytotoxicity against wild type human THP1-Dual cells assessed as cell viability incubated for 24 hrs by CellTiter 96 aqueous one solution assay relative to control. Type of data set: toxicity, cell-based. Also noted: concentration or dose not given beside the values. The following applies: read-out: Activity.
In data set [3] the target is Stimulator of interferon genes protein (Homo sapiens, UniProt Q86WV6). Briefly: Agonist activity at STING in wild type human THP1-Dual cells assessed as increase in IRF-mediated immune response incubated for 24 hrs by QUANTI-Luc assay. Type of data set: cell-based.
Chain of Stimulator of interferon genes protein (Q86WV6 whole entry): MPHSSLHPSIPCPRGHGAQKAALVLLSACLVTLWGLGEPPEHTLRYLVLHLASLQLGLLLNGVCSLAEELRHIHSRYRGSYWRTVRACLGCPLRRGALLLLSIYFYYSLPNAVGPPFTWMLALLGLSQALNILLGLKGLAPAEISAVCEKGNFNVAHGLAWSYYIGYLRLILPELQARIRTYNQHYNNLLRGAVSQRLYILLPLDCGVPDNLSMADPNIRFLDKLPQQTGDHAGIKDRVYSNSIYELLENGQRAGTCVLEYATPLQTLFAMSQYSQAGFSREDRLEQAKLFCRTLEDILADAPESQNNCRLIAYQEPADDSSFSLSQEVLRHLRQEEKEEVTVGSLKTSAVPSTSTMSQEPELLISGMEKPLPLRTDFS

With `Cc1cncc(C(=O)Nc2nc3cc(C(N)=O)ccc3n2CCCCNC(=O)OC(C)(C)C)c1`, the figures for the viability at 24 h in data set [1] and in data set [2] were 97.4% and 90.7%, respectively.
Take `Cc1ncccc1C(=O)Nc1nc2cc(C(N)=O)ccc2n1CCCCN`: the values for the viability at 24 h in data set [1] and in data set [2] were 98.5% and 105%, respectively.
For the compound `CC(C)(C)OC(=O)NCCCCn1c(NC(=O)c2cccnc2)nc2cc(C(N)=O)ccc21`, the figures for the viability at 24 h in data set [1] and in data set [2] were 93.3% and 97.4%, respectively. In addition, the EC50 (as a rule, the concentration at which the effect is half-maximal) in data set [3] stood at 42.1 µM.
For `Cc1ccc(C(=O)Nc2nc3cc(C(N)=O)ccc3n2CCCCNC(=O)OC(C)(C)C)c(C)n1`, the viability at 24 h in data set [1] is 93.2%; in data set [2] it was 112%.
Take `CCn1nc(C)cc1C(=O)Nc1nc2cc(C(N)=O)ccc2n1CCCCn1c(NC(=O)c2cc(C)nn2CC)nc2cc(C(N)=O)ccc21`: the viability at 24 h stood at 117% in data set [1] and 101% in data set [2]. Further, the EC50 in data set [3] stood at 9.2 µM.
As for `Cc1ccncc1C(=O)Nc1nc2cc(C(N)=O)ccc2n1CCCCNC(=O)OC(C)(C)C`, the results for the viability at 24 h in data set [1] and in data set [2] were 87.8% and 88.5%, respectively.
The matching figures for `CC(=O)NCCCCn1c(NC(=O)c2cccnc2C)nc2cc(C(N)=O)ccc21`: 97.4% and 99.7%.
Take `Cc1ccc(C(=O)Nc2nc3cc(C(N)=O)ccc3n2CCCCNC(=O)OC(C)(C)C)cn1`: the values for the viability at 24 h in data set [1] and in data set [2] were 95.3% and 89.3%, respectively.
Regarding `CC(C)(C)OC(=O)NCCCCn1c(NC(=O)c2ccc(C(F)(F)F)nc2)nc2cc(C(N)=O)ccc21`, the results for the viability at 24 h in data set [1] and in data set [2] were 108% and 106%, respectively.
The matching figures for `CC(C)(C)OC(=O)NCCCCn1c(NC(=O)c2cccnc2Cl)nc2cc(C(N)=O)ccc21`: 100% and 105%.
Regarding `CCn1nc(C)cc1C(=O)NCCCCn1c(NC(=O)c2cccnc2C)nc2cc(C(N)=O)ccc21`, the viability at 24 h in data set [1] worked out at 105%; in data set [2], 98.5%.
In the case of `COc1cc(C(N)=O)cc2nc(NC(=O)c3cccnc3C)n(C/C=C/CNC(=O)OC(C)(C)C)c12`, the viability at 24 h in data set [1] stood at 97.5%; in data set [2] it was 106%.
As for `CC(C)(C)OC(=O)NCCCCn1c(NC(=O)c2cccnc2C(F)(F)F)nc2cc(C(N)=O)ccc21`, the figures for the viability at 24 h in data set [1] and in data set [2] were 102% and 108%, respectively.
On the same counts, the results for `Nc1nc2c(ncn2[C@@H]2O[C@@H]3COP(=O)(O)O[C@H]4[C@@H](O)[C@H](n5cnc6c(N)ncnc65)O[C@@H]4COP(=O)(O)O[C@H]3[C@H]2O)c(=O)[nH]1` are 97.2% and 87%.
On the same counts, the results for `CC(C)(C)OC(=O)NCCCCn1c(NC(=O)c2cccnc2C(C)(C)C)nc2cc(C(N)=O)ccc21` are 106% and 91.6%.
For `Cc1ncccc1C(=O)Nc1nc2cc(C(N)=O)ccc2n1CCCCCNC(=O)OC(C)(C)C`, the viability at 24 h in data set [1] amounted to 92%; in data set [2] it was 92.2%.
Turning to `CC(C)(C)OC(=O)NCCCCn1c(NC(=O)c2ccccc2)nc2cc(C(N)=O)ccc21`, the figures for the viability at 24 h in data set [1] and in data set [2] were 101% and 82.1%, respectively.
The matching figures for `Cc1ncccc1C(=O)Nc1nc2cc(C(N)=O)ccc2n1CCCNC(=O)OC(C)(C)C`: 93.6% and 102%.
Turning to `Cc1ncccc1C(=O)Nc1nc2cc(C(N)=O)ccc2n1CCCCn1c(NC(=O)c2cccnc2C)nc2cc(C(N)=O)ccc21`, the values for the viability at 24 h in data set [1] and in data set [2] were 118% and 91%, respectively. In addition, the EC50 in data set [3] was found to be 18 µM.
`Cc1ncccc1C(=O)Nc1nc2cc(C(N)=O)ccc2n1CCCCNC(=O)c1ccccc1`: the viability at 24 h in data set [1] came to 93.8%; in data set [2], 101%.
As for `CC(C)(C)OC(=O)NCCCCn1c(NC(=O)c2cccnc2F)nc2cc(C(N)=O)ccc21`, the figures for the viability at 24 h in data set [1] and in data set [2] were 108% and 107%, respectively.
With `COc1cc(C(N)=O)cc2nc(NC(=O)c3ccc(C(F)(F)F)nc3C)n(C/C=C/CNC(=O)OC(C)(C)C)c12`, the viability at 24 h amounted to 107% in data set [1] and 87.5% in data set [2].
As for `CCn1nc(C)cc1C(=O)Nc1nc2cc(C(N)=O)ccc2n1CCCCNC(=O)OC(C)(C)C`, the viability at 24 h in data set [1] was 105%; in data set [2], 69%. Besides, the half-maximal effective concentration (EC50) in data set [3] came to 19.6 µM.
As to `Cc1ncccc1C(=O)Nc1nc2cc(C(N)=O)ccc2n1C`, the viability at 24 h in data set [1] was determined as 105%; in data set [2], 82.8%.
The matching figures for `CC(C)(C)OC(=O)NCCCCn1c(NC(=O)c2ccncc2)nc2cc(C(N)=O)ccc21`: 90.6% and 86.9%.
On to `CCc1ncccc1C(=O)Nc1nc2cc(C(N)=O)ccc2n1CCCCNC(=O)OC(C)(C)C`, for which the viability at 24 h in data set [1] was 94.7%; in data set [2], 89.2%.
As for `Cc1ncccc1C(=O)Nc1nc2cc(C(N)=O)ccc2n1CCCCCN`, the viability at 24 h is 99.3% in data set [1] and 110% in data set [2].
As for `Cc1ncccc1C(=O)Nc1nc2cc(C(N)=O)ccc2n1CCCN`, the viability at 24 h in data set [1] was found to be 100%; in data set [2] it was 105%.
With `CC(C)(C)OC(=O)NCCCCn1c(NC(=O)c2ccc(F)nc2)nc2cc(C(N)=O)ccc21`, the viability at 24 h in data set [1] was 107%; in data set [2], 102%.
Consider `Cc1nc(C(F)(F)F)ccc1C(=O)Nc1nc2cc(C(N)=O)ccc2n1CCCCNC(=O)OC(C)(C)C`, for which the viability at 24 h stood at 97.5% in data set [1] and 106% in data set [2]. For the same compound, the EC50 in data set [3] was 29.7 µM.
